Experimental data published in patent publication US11267830B2, “Flow battery and components thereof” (University of Massachusetts, priority 2017, dated 2022).
Read-outs that look alike come from different tables or passages of the source.

What was measured:
[1] = reduced, vanadium(iv) state; cited from earlier work
[2] = Static cell cycling to ~80% state of charge; assay type: physicochemical; conditions: more than 90 cycles, 0.35 V and −0.35 V vs. open circuit
Description: (§1) Cyclic voltammetry was carried out in DMSO using a 3 mm glassy carbon electrode as working electrode, a Pt wire counter electrode, a silver wire pseudo reference electrode and tetrabutylammonium hexafluorophosphate as supporting […]. Ferrocene was used as an internal potential reference. Static cell cycling was carried out using graphite felt (Alfa Aesar, part #AA14630RR) which was heat-treated in a furnace at 250° C. under air, overnight, before use.
As such, the behavior of CVBH during cycling to ˜80% state of charge was investigated by alternately applying potentials of 0.35 V and −0.35 V vs. open circuit to oxidize and reduce the compound, respectively. […] Some decrease in peak current over time was observed (FIG. 5B), however, it was restored after stirring was stopped for 20 minutes (FIG. 5B, dotted line).

[3] = Exhaustive cycling using cyclic voltammetry (stability); assay type: physicochemical
Description: as §1
Any decomposition of CVBH under these conditions would be evident as a decrease in peak current and changes in reversibility, as the identity of the species present at the electrode evolved over time. […] This is in stark contrast to the anaerobic and anhydrous conditions that are necessary in handling other NRFB active materials. […] This occurs even in ostensibly anhydrous systems due to the presence of adventitious water, and is the result of ligand substitution, yielding a vanadyl (V═O) species that is nearly ubiquitous in aqueous vanadium(iv) coordination chemistry. […] While the former has been measured, the latter can be deduced using a thermodynamic cycle, constructed from published data for the vanadium(iv/v) reduction potentials of CVBH and aqueous, acidic vanadium ions, along with the metal-ligand stability constant of CVBH in the vanadium(iv) oxidation state (FIG. 4).

[4] = Cyclic voltammetry (formal potential, diffusion coefficient); assay type: physicochemical; conditions: for diffusion coefficient for the one-electron oxidation: 0.5 M TBAPF6, Randles-Sevcik fit
Description: as §1
CV data with variable scan rates were used to determine the diffusion coefficient for the one-electron oxidation of CVBH^−2 by fitting with the Randles-Sevcik equation. In addition, to investigate the effect of solvent on this property, the analysis was carried out in propylene carbonate (PC).

[5] = earlier study, sample contaminated by mono-sodium salt of the ligand; cited from earlier work
Solubility in solvents = assay type: physicochemical; conditions: solvents other than DMSO and water
Source text: Since the solubility of CVBH is low in solvents other than DMSO and water, investigation of the electrochemistry in PC necessitated the synthesis of the bis-tetramethylammonium (TMA) salt of vanadium bis-hydroxyiminodiacetate (VBH), which was characterized using FTIR and X-ray crystallography (FIG. 2). While the coordination sphere of the VBH dianion is unperturbed compared to that of CVBH, solubility is greatly altered with two diffuse TMA countercations compared to the Ca^+2 counter-cation of CVBH. Altering the cation(s) of VBH^2− is a way to tune solubility in various battery-relevant solvents and compatibility with an array of membrane/separator architectures and supporting electrolytes. These attributes are paramount to realization of high power and energy densities in NRFB systems and this strategy offers a promising avenue for optimization.

[6] = Metal-ligand stability constant; assay type: physicochemical; conditions: oxidized, vanadium(v) state; deduced using a thermodynamic cycle
Source text: Any decomposition of CVBH under these conditions would be evident as a decrease in peak current and changes in reversibility, as the identity of the species present at the electrode evolved over time. […] This is in stark contrast to the anaerobic and anhydrous conditions that are necessary in handling other NRFB active materials. […] This occurs even in ostensibly anhydrous systems due to the presence of adventitious water, and is the result of ligand substitution, yielding a vanadyl (V═O) species that is nearly ubiquitous in aqueous vanadium(iv) coordination chemistry. It should be further noted that CVBH is stable in both the reduced, vanadium(iv), state (as-synthesized) and the oxidized, vanadium(v) state, with metal ligand stability constants of 8.2×10^21 and 2.6×10^23, respectively. While the former has been measured, the latter can be deduced using a thermodynamic cycle, constructed from published data for the vanadium(iv/v) reduction potentials of CVBH and aqueous, acidic vanadium ions, along with the metal-ligand stability constant of CVBH in the vanadium(iv) oxidation state (FIG. 4).

[7] = when oxidized to the 4+ state; cited from earlier work

Row | Compound | metal ligand stability constant [1] | change in CV before and after static cell cycling [2] | change in voltammogram after addition of water ([3]; 20% water (by volume) in the presence of oxygen) | change in voltammogram on exhaustive CV cycling ([3]; over 800 cycles) | diffusion coefficient for the one-electron oxidation ([4]; DMSO) | formal potential (E°′=E1/2) ([4]; DMSO, ferrocene as internal standard) | diffusion coefficient for the one-electron oxidation ([4]; propylene carbonate (PC)) | formal potential, previously reported value [5] | solubility (Solubility in solvents) | metal ligand stability constant [6] | stability in the presence of water [7]
1 | O.O.O.O.O.O=C([O-])CN(O)CC(=O)[O-].O=C([O-])CN(O)CC(=O)[O-].[Ca].[V+4] [CVBH, Calcium(ii) vanadium(iv)bis-hydroxyiminodiacetate pentahydrate] | 8.2×10^21 | no observed change in the shape of the CV | no change in voltammogram shape | virtually no change in the shape of the voltammogram | 8.3×10^−7 cm^2·s^−1 | 0.30 V vs standard hydrogen electrode (SHE) | 5.6×10^−7 cm^2·s^−1 | 0.38 V vs. SHE | low | 2.6×10^23 | –
2 | CC(=O)/C=C(/C)O.CC(=O)/C=C(/C)O.CC(=O)/C=C(/C)O.[V] [V(acac)3] | – | – | – | – | – | – | – | – | – | – | rapidly decomposes
